# Laboratory results: patent publication US9365551B2, “2-(benzyloxy) benzamides as LRRK2 kinase inhibitors” (Glaxo Group Limited, priority 2010, dated 2016)
# What was measured:
# [1] = target: T1, 6His-Tev-LRRK2 (1326-2527) (Homo sapiens, UniProt Q5S007); assay: LRRK2 peptide substrate assay; format: biochemical; details: mean pIC50 of multiple test results; stated as threshold; read-out: pIC50 in the LRRK2 peptide substrate assay (bounds) (converted)
# T1 construct: A LRRK2 cDNA encoding residues 1326-2527 was received from Dundee University; made in house; host or cells: Spodoptera frugiperda (Sf9) insect cells, baculovirus (pFB-HTb)
# T1 sequence (Q5S007 1326-2527): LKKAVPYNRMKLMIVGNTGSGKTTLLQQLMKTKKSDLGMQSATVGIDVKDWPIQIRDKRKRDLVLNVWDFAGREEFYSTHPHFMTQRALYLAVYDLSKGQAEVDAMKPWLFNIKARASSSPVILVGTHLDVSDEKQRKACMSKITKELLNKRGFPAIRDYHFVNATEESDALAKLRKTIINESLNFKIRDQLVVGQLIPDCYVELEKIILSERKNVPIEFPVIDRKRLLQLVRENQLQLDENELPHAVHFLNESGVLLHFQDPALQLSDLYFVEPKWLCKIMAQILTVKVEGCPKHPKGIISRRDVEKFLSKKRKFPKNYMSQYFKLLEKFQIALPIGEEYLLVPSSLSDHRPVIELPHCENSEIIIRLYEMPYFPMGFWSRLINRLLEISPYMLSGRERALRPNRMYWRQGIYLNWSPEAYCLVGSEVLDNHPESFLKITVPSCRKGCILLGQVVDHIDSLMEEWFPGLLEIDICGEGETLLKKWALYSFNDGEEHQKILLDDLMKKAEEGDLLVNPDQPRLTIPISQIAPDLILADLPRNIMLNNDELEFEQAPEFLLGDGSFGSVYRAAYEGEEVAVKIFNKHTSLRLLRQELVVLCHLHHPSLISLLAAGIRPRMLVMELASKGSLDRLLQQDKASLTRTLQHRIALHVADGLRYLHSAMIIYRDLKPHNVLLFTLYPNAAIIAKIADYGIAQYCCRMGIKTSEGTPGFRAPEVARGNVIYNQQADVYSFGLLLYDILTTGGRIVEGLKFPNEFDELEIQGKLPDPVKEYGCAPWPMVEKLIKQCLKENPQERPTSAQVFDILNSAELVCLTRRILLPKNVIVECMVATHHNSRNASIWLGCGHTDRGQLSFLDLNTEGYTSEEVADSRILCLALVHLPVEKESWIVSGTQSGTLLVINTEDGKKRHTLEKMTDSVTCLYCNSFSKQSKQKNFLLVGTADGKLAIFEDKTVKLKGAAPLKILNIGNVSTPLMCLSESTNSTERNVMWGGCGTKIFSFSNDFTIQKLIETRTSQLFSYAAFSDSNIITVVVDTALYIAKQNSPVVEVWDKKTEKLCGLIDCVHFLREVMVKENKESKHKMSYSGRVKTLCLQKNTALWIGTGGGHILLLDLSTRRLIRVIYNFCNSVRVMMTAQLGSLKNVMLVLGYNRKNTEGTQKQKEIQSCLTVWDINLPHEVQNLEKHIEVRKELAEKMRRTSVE
# Method in brief: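 Compound (1:4 series, top 30 μM final) preincubated 30 min at RT with the enzyme solution (80 nM) in pH 7.2 Hepes, 10 mM MgCl2 buffer. Reaction was started with substrate solution (2 μM Biotin-LRRKtide, ATP at Km) and run 1–2 h at RT. Phospho-peptide detected by TR-FRET (Eu/APC, 665/620 nm) after EDTA stop.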
# [2] = target: T1, 6His-Tev-LRRK2 (1326-2527); assay: LRRK2 AlphaScreen desensitised protein substrate assay; format: biochemical; details: mean pIC50 of multiple test results; stated as threshold; read-out: pIC50 in the LRRK2 alphascreen desensitised protein substrate assay (bounds) (converted)
# Method in brief: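 Compounds (1:4 series, top final 30 μM) were preincubated 30 min at room temperature with 6His-Tev-LRRK2 (1326-2527) solution (80 nM) in Hepes pH 7.2, 10 mM MgCl2. Substrate solution held 200 nM GST-PS-Moesin (400-577) and 2 mM ATP, and the reaction ran 20 min. Phospho-Moesin Thr558 was read by AlphaLisa antibody-bead detection after 2 h.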
Structure (SMILES),IC50 [1] [µM],IC50 [2] [µM]
"CN1CCN(C(=O)c2cc(OCc3ccccc3)c(C(=O)Nc3cccnn3)cc2Cl)CC1 [Example 56, 2-(benzyloxy)-5-chloro-4-(4-methylpiperazine-1-carbonyl)-N-(pyridazin-3-yl)benzamide]",≤ 0.1,≤ 25.1
"CN1CCN(C(=O)c2cc(OCc3ccccc3)c(C(=O)Nc3ccccc3)cc2Cl)CC1 [Example 57, 2-(benzyloxy)-5-chloro-4-(4-methylpiperazine-1-carbonyl)-N-phenylbenzamide]",≤ 0.1,≤ 25.1
